The record followed here is patent US10793564B2, “Amino acid compounds and methods of use” (Pliant Therapeutics, Inc., priority 2018, dated 2020).

For this experiment, the target named is recombinant human integrin αVβ6 (Homo sapiens (Human), UniProt P06756+P18564). The experiment in a line: Solid phase integrin αVβ6 binding assay. As to conditions: inhibition of recombinant TGFβ1 LAP binding to coated integrin, IC50 presented in four ranges, read-out: αvβ6 Inhibition IC50 (nM) - range. The essentials: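 Plates coated with recombinant human αVβ6 (2 μg/mL) and blocked; compounds competed with TGFβ1 LAP (0.67 μg/mL) in Mn2+ (0.5 mM)/BSA/sucrose TBS for 2 h at 25° C. Bound LAP detected by biotin anti-LAP and peroxidase-streptavidin; IC50 by four-parameter logistic fit.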
Sequence of recombinant human integrin αVβ6 (P06756 31-992): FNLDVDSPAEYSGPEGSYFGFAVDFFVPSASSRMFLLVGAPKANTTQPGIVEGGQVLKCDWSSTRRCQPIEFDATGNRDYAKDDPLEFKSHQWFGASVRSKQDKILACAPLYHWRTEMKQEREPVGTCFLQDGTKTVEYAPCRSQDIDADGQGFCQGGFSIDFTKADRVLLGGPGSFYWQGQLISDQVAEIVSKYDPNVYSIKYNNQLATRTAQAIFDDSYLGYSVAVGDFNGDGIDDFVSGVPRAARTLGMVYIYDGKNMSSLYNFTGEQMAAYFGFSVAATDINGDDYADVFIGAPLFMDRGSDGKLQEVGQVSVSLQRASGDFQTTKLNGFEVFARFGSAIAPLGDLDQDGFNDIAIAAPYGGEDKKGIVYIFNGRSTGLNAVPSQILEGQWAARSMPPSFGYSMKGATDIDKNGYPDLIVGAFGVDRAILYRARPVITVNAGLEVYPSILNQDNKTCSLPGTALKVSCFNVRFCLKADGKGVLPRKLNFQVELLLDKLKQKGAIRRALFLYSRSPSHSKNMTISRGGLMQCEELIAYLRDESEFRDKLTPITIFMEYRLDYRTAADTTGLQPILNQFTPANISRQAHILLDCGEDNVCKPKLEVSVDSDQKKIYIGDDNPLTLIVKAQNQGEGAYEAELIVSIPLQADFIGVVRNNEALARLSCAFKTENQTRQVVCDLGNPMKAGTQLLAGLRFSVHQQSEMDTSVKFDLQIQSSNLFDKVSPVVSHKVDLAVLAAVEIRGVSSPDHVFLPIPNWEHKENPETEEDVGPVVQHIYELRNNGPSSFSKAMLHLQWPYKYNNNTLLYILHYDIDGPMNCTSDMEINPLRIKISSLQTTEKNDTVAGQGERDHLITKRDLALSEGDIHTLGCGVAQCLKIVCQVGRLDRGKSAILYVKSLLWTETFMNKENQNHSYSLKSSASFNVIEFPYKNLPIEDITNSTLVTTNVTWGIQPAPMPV
Sequence of recombinant human integrin αVβ6 (P18564 22-707): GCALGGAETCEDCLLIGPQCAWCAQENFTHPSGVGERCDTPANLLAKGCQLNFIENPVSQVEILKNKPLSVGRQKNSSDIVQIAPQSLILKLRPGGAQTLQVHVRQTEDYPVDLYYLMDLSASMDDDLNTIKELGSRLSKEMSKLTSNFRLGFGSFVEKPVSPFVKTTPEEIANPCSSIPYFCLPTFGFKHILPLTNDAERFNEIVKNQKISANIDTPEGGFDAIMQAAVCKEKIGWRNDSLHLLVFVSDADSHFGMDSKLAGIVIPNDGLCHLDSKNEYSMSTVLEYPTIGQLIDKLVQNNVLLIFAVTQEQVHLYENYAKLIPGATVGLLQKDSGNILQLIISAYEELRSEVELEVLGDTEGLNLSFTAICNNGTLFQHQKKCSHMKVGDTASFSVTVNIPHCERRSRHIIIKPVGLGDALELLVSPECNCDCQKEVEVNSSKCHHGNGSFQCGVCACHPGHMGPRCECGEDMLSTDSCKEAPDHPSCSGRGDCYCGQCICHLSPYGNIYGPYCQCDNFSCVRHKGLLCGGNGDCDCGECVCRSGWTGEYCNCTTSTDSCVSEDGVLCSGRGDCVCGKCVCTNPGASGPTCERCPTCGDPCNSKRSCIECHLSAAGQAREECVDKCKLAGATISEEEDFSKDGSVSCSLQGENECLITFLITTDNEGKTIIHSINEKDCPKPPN
On to `Cn1ncc2c(N[C@@H](CCN(CCCCc3ccc4c(n3)NCCC4)CC(F)F)C(=O)O)ncnc21` [Compound 88, (S)-4-((2,2-difluoroethyl) (4-(5,6,7,8-tetrahydro-1,8-naphthyridin-2-yl)butyl)amino)-2-((1-methyl-1H-pyrazolo[3,4-d]pyrimidin-4-yl)amino) butanoic Acid], for which the IC50 (usually the concentration at which inhibition is half-maximal) was above 1000 nM.
As for `O=C(O)[C@H](CCN(CCCCc1ccc2c(n1)NCCC2)CCOc1ccccc1)Nc1ncc(C(F)(F)F)cn1` [Compound 89, (S)-4-((2-phenoxyethyl) (4-(5,6,7,8-tetrahydro-1,8-naphthyridin-2-yl)butyl)amino)-2-((5-(trifluoromethyl)pyrimidin-2-yl)amino) butanoic Acid], the IC50 was below 50 nM.
Under `O=C(O)[C@H](CCN(CCCCc1ccc2c(n1)NCCC2)CCOc1ccccc1)Nc1ncnc2[nH]ncc12` [Compound 90, (S)-2-((1H-pyrazolo[3,4-d]pyrimidin-4-yl)amino)-4-((2-phenoxyethyl) (4-(5,6,7,8-tetrahydro-1,8-naphthyridin-2-yl)butyl)amino) butanoic Acid] stands below 50 nM.
Under `O=C(O)[C@H](CCN(CCCCc1ccc2c(n1)NCCC2)CCOc1ccccc1)Nc1cc(-n2cccn2)ncn1` [Compound 91, (S)-2-((6-(1H-pyrazol-1-yl)pyrimidin-4-yl)amino)-4-((2-phenoxyethyl) (4-(5,6,7,8-tetrahydro-1,8-naphthyridin-2-yl)butyl)amino) butanoic Acid] stands below 50 nM; under `O=C(O)[C@H](CCN(CCCCc1ccc2c(n1)NCCC2)CCOc1ccccc1)Nc1ccnc(C(F)(F)F)n1` [Compound 92, (S)-4-((2-phenoxyethyl) (4-(5,6,7,8-tetrahydro-1,8-naphthyridin-2-yl)butyl)amino)-2-((2-(trifluoromethyl)pyrimidin-4-yl)amino) butanoic Acid], below 50 nM.
The value for `O=C(O)[C@H](CCN(CCCCc1ccc2c(n1)NCCC2)CCOc1ccccc1)Nc1cc(-c2ccccc2)ncn1` [Compound 93, (S)-4-((2-phenoxyethyl) (4-(5,6,7,8-tetrahydro-1,8-naphthyridin-2-yl)butyl)amino)-2-((6-phenylpyrimidin-4-yl)amino) butanoic Acid] was below 50 nM.
Consider `O=C(O)[C@H](CCN(CCCCc1ccc2c(n1)NCCC2)CCOc1ccccc1)Nc1nc(-c2cccnc2)nc2ccccc12` [Compound 94, (S)-4-((2-phenoxyethyl) (4-(5,6,7,8-tetrahydro-1,8-naphthyridin-2-yl)butyl)amino)-2-((2-(pyridin-3-yl)quinazolin-4-yl)amino) butanoic Acid], for which the concentration for half-maximal inhibition (IC50) was below 50 nM.
Take `O=C(O)[C@H](CCN(CCCCc1ccc2c(n1)NCCC2)CC(F)F)Nc1ncc(C(F)(F)F)cn1` [Compound 95, (S)-4-((2,2-difluoroethyl) (4-(5,6,7,8-tetrahydro-1,8-naphthyridin-2-yl)butyl)amino)-2-((5-(trifluoromethyl)pyrimidin-2-yl)amino) butanoic Acid]: the 50% inhibitory concentration (IC50) is above 1000 nM.
The value for `O=C(O)[C@H](CCN(CCCCc1ccc2c(n1)NCCC2)CC(F)F)Nc1ncc(Br)cn1` [Compound 96, (S)-2-((5-bromopyrimidin-2-yl)amino)-4-((2,2-difluoroethyl) (4-(5,6,7,8-tetrahydro-1,8-naphthyridin-2-yl)butyl)amino) butanoic Acid] was above 1000 nM; that for `O=C(O)[C@H](CCN(CCCCc1ccc2c(n1)NCCC2)CC(F)F)Nc1ccnc(C(F)(F)F)n1` [Compound 97, (S)-4-((2,2-difluoroethyl) (4-(5,6,7,8-tetrahydro-1,8-naphthyridin-2-yl)butyl)amino)-2-((2-(trifluoromethyl)pyrimidin-4-yl)amino) butanoic Acid] was above 1000 nM.
The value for `O=C(O)[C@H](CCN(CCCCc1ccc2c(n1)NCCC2)CC(F)F)Nc1cc(-n2cccn2)ncn1` [Compound 98, (S)-2-((6-(1H-pyrazol-1-yl)pyrimidin-4-yl)amino)-4-((2,2-difluoroethyl) (4-(5,6,7,8-tetrahydro-1,8-naphthyridin-2-yl)butyl)amino) butanoic Acid] was above 1000 nM; that for `O=C(O)[C@H](CCN(CCCCc1ccc2c(n1)NCCC2)CC(F)F)Nc1nc(-c2cccnc2)nc2ccccc12` [Compound 99, (S)-4-((2,2-difluoroethyl) (4-(5,6,7,8-tetrahydro-1,8-naphthyridin-2-yl)butyl)amino)-2-((2-(pyridin-3-yl)quinazolin-4-yl)amino) butanoic Acid] was 250 to 1000 nM; that for `CO[C@H](C)CN(CCCCc1ccc2c(n1)NCCC2)CC[C@H](Nc1nc(-c2cccnc2)nc2ccccc12)C(=O)O` [Compound 100, (S)-4-(((R)-2-methoxypropyl) (4-(5,6,7,8-tetrahydro-1,8-naphthyridin-2-yl)butyl)amino)-2-((2-(pyridin-3-yl)quinazolin-4-yl)amino) butanoic Acid] was below 50 nM.
The value for `CS(=O)(=O)CCN(CCCCc1ccc2c(n1)NCCC2)CC[C@H](Nc1ncc(C(F)(F)F)cn1)C(=O)O` [Compound 102, (S)-4-((2-(methylsulfonyl)ethyl) (4-(5,6,7,8-tetrahydro-1,8-naphthyridin-2-yl)butyl)amino)-2-((5-(trifluoromethyl)pyrimidin-2-yl)amino) butanoic Acid] was above 1000 nM; that for `CS(=O)(=O)CCN(CCCCc1ccc2c(n1)NCCC2)CC[C@H](Nc1ncc(Br)cn1)C(=O)O` [Compound 103, (S)-2-((5-bromopyrimidin-2-yl)amino)-4-((2-(methylsulfonyl)ethyl) (4-(5,6,7,8-tetrahydro-1,8-naphthyridin-2-yl)butyl)amino) butanoic Acid] was above 1000 nM; that for `CS(=O)(=O)CCN(CCCCc1ccc2c(n1)NCCC2)CC[C@H](Nc1ccnc(C(F)(F)F)n1)C(=O)O` [Compound 104, (S)-4-((2-(methylsulfonyl)ethyl) (4-(5,6,7,8-tetrahydro-1,8-naphthyridin-2-yl)butyl)amino)-2-((2-(trifluoromethyl)pyrimidin-4-yl)amino) butanoic Acid] was above 1000 nM.
Regarding `COC[C@@H](F)CN(CCCCc1ccc2c(n1)NCCC2)CC[C@H](Nc1ncnc2c1cnn2C)C(=O)O` [Compound 105, (S)-4-(((S)-2-fluoro-3-methoxypropyl) (4-(5,6,7,8-tetrahydro-1,8-naphthyridin-2-yl)butyl)amino)-2-((1-methyl-1H-pyrazolo[3,4-d]pyrimidin-4-yl)amino) butanoic Acid], the IC50 is below 50 nM.
The value for `CO[C@H](C)CN(CCCCc1ccc2c(n1)NCCC2)CC[C@H](Nc1ccncn1)C(=O)O` [Compound 106, (S)-4-(((R)-2-methoxypropyl) (4-(5,6,7,8-tetrahydro-1,8-naphthyridin-2-yl)butyl)amino)-2-(pyrimidin-4-ylamino) butanoic Acid] was below 50 nM; that for `CS(=O)(=O)CCN(CCCCc1ccc2c(n1)NCCC2)CC[C@H](Nc1nc(-c2cccnc2)nc2ccccc12)C(=O)O` [Compound 107, (S)-4-((2-(methylsulfonyl)ethyl) (4-(5,6,7,8-tetrahydro-1,8-naphthyridin-2-yl)butyl)amino)-2-((2-(pyridin-3-yl)quinazolin-4-yl)amino) butanoic Acid] was 250 to 1000 nM; that for `COC[C@@H](F)CN(CCCCc1ccc2c(n1)NCCC2)CC[C@H](Nc1cc(-n2cccn2)ncn1)C(=O)O` [Compound 108, (S)-2-((6-(1H-pyrazol-1-yl)pyrimidin-4-yl)amino)-4-(((S)-2-fluoro-3-methoxypropyl) (4-(5,6,7,8-tetrahydro-1,8-naphthyridin-2-yl)butyl)amino) butanoic Acid] was above 1000 nM.
Consider `COC[C@@H](F)CN(CCCCc1ccc2c(n1)NCCC2)CC[C@H](Nc1nc(-c2cccnc2)nc2ccccc12)C(=O)O` [Compound 109, (S)-4-(((S)-2-fluoro-3-methoxypropyl) (4-(5,6,7,8-tetrahydro-1,8-naphthyridin-2-yl)butyl)amino)-2-((2-(pyridin-3-yl)quinazolin-4-yl)amino) butanoic Acid], for which the IC50 was below 50 nM.
With `COC[C@@H](F)CN(CCCCc1ccc2c(n1)NCCC2)CC[C@H](Nc1ncncc1-c1ccccc1)C(=O)O` [Compound 110, (S)-4-(((S)-2-fluoro-3-methoxypropyl) (4-(5,6,7,8-tetrahydro-1,8-naphthyridin-2-yl)butyl)amino)-2-((5-phenylpyrimidin-4-yl)amino) butanoic Acid], the IC50 is below 50 nM.
The value for `N#Cc1cnc(N[C@@H](CCN(CCCCc2ccc3c(n2)NCCC3)CCOc2ccccc2)C(=O)O)nc1` [Compound 111, (S)-2-((5-cyanopyrimidin-2-yl)amino)-4-((2-phenoxyethyl) (4-(5,6,7,8-tetrahydro-1,8-naphthyridin-2-yl)butyl)amino) butanoic Acid] was below 50 nM; that for `O=C(O)[C@H](CCN(CCCCc1ccc2c(n1)NCCC2)CC(F)F)Nc1ncnc2[nH]ncc12` [Compound 112, (S)-2-((1H-pyrazolo[3,4-d]pyrimidin-4-yl)amino)-4-((2,2-difluoroethyl) (4-(5,6,7,8-tetrahydro-1,8-naphthyridin-2-yl)butyl)amino) butanoic Acid] was 250 to 1000 nM.
The value for `O=C(O)[C@H](CCN(CCCCc1ccc2c(n1)NCCC2)C1CC1)Nc1ncc(C(F)(F)F)cn1` [Compound 114, (S)-4-(cyclopropyl(4-(5,6,7,8-tetrahydro-1,8-naphthyridin-2-yl)butyl)amino)-2-((5-(trifluoromethyl)pyrimidin-2-yl)amino) butanoic Acid] was below 50 nM; that for `O=C(O)[C@H](CCN(CCCCc1ccc2c(n1)NCCC2)C1CC1)Nc1ccnc(C(F)(F)F)n1` [Compound 115, (S)-4-(cyclopropyl(4-(5,6,7,8-tetrahydro-1,8-naphthyridin-2-yl)butyl)amino)-2-((2-(trifluoromethyl)pyrimidin-4-yl)amino) butanoic Acid] was 50 to 250 nM.
